Experimental data from ChEMBL document CHEMBL1201862, “PubChem BioAssay data set” (2004).
Calls of active or inactive are those of the source. Rule as the data show it, for most assays here: actives have a measured IC50 and inactives only a lower limit.

What was measured:
Assay type in all cases: functional
Protein RecA = target: T1, Protein RecA (Mycobacterium tuberculosis, UniProt P9WHJ3); assay: Fluorescence Cell-Free Homogeneous Dose Retest to Identify Inhibitors of RecA-Intein Splicing Activity. [Related pubchem assays (depositor defined):AID2097, AID2223, AID489010, AID492950]
T1 sequence (P9WHJ3 whole entry): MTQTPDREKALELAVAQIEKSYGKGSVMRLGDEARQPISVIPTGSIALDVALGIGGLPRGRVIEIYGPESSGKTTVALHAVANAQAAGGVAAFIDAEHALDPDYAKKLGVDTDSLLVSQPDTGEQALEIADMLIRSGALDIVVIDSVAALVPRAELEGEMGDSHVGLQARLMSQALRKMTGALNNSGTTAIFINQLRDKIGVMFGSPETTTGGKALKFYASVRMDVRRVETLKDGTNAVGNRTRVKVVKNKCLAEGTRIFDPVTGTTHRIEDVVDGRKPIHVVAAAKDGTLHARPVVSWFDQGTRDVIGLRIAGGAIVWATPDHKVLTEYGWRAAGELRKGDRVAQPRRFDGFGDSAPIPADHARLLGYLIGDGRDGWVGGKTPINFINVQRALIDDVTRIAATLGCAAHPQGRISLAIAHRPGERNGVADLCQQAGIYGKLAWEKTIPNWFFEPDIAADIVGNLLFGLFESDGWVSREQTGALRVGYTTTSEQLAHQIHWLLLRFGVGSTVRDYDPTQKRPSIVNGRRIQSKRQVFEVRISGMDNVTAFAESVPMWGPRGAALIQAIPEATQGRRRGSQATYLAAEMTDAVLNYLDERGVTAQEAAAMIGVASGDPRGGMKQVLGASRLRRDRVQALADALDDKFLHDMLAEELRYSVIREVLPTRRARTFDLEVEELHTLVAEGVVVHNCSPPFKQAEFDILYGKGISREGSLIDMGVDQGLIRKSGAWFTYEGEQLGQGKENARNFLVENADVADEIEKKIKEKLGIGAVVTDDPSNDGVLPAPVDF

[1] = target: T2, Sentrin-specific protease 7 (Homo sapiens, UniProt Q9BQF6); assay: SENP7 protease inhibitors, SAR follow-up, biochemical, luminescence, set 2 (AID 588600)
T2 sequence (Q9BQF6 whole entry): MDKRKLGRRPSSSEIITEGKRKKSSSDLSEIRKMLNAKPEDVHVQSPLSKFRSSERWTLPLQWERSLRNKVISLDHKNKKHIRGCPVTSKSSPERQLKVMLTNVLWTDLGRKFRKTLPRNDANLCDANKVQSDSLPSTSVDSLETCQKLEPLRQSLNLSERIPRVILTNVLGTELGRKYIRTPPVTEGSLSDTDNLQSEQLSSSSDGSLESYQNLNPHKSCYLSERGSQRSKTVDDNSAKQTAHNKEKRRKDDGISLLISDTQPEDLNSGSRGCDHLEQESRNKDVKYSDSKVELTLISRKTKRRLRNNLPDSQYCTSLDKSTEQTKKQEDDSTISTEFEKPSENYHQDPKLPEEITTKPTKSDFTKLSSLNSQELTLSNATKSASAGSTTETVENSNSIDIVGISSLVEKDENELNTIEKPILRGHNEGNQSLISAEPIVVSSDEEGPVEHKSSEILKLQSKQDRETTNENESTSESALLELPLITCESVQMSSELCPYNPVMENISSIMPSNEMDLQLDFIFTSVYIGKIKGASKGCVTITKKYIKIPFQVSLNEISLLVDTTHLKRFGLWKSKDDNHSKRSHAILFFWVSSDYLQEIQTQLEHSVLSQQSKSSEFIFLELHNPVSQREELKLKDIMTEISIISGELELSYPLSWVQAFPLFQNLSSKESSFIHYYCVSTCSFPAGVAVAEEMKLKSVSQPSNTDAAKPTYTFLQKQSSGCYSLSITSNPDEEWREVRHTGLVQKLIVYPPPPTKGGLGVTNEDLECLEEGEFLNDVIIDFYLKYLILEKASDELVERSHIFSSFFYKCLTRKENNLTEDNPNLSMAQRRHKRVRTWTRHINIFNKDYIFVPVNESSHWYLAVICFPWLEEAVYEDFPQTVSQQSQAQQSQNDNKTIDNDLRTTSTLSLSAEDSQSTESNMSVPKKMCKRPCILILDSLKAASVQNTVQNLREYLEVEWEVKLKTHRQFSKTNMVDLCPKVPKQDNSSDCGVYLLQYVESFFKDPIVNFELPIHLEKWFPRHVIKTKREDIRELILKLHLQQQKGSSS

[2] = target: T3, Sentrin-specific protease 6 (Homo sapiens, UniProt Q9GZR1);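 also: Luminescence-based dose-response confirmatory assay of SENP6 inhibition, following up an ultra-high-throughput screen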
T3 sequence (Q9GZR1 whole entry): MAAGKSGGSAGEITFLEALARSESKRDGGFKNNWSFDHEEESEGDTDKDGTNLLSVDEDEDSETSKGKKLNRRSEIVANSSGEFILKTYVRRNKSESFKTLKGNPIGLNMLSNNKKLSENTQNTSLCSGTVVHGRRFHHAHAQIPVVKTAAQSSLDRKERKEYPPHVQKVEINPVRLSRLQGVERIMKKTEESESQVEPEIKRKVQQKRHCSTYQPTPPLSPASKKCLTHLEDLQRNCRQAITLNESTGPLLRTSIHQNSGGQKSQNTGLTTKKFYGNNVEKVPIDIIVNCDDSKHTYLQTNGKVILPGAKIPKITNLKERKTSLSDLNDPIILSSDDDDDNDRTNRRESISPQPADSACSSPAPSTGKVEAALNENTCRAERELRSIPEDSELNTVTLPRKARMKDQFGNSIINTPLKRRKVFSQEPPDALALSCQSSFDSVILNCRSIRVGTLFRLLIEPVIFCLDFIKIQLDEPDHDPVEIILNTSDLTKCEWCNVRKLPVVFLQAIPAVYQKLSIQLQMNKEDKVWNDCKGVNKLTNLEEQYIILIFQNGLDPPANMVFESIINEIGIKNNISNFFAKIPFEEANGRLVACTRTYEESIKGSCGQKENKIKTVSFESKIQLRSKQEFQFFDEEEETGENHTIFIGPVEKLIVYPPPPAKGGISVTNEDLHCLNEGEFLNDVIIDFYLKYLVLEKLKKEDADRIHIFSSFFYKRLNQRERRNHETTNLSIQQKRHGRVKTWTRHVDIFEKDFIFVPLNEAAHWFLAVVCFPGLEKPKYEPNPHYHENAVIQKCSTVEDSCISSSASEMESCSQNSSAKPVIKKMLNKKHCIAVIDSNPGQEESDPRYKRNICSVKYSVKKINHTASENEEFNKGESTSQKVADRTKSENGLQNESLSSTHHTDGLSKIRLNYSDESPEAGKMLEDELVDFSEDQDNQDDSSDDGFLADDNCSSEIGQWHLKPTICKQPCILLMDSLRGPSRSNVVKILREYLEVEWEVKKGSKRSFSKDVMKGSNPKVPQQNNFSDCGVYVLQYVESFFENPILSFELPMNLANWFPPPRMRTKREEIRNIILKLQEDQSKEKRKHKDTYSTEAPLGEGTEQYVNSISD

Row | Structure (SMILES) | EC50 (Protein RecA) | IC50 [1] | IC50 [2]
1 | Cc1nn(-c2ccccc2)c(Cl)c1CN(C(=O)CCl)c1ccc(Cl)cc1 | 0.355 µM (active) |  | 
2 | Oc1ccccc1/C=C/c1noc(-c2ccccc2O)n1 |  | 43.8 µM (active) | > 100 µM (inactive)
3 | Cc1cccc(N=Nc2ccc(N(C)C)cc2)c1 |  |  | 4.4 µM (active)
4 | O=C(O)CSc1cc(NS(=O)(=O)c2ccc(Cl)cc2)c2ccccc2c1O | 2.39 µM (active) |  | 
5 | COc1ccccc1N1C(=O)Cc2ccccc2C1=O | 9.77 µM (active) |  | 10.6 µM (active)
